Key:
[1] = molecular target: Tyrosine-protein kinase JAK1 (Homo sapiens) (UniProt P23458); settings: Compound concentration 1000.0 nM
[2] = test system: Phosphatidylinositol 4,5-bisphosphate 3-kinase catalytic subunit alpha isoform (Homo sapiens), P42336 [E542K]; settings: Compound concentration 1000.0 nM
[3] = molecular target: Eukaryotic translation initiation factor 2-alpha kinase 1 (Homo sapiens) (UniProt Q9BQI3); settings: Compound concentration 1000.0 nM
[4] = molecular target: Fibroblast growth factor receptor 1 (Homo sapiens) (UniProt P11362); settings: Compound concentration 1000.0 nM
[5] = test system: Tyrosine-protein kinase ABL1 (Homo sapiens), P00519 [E255K]; settings: Compound concentration 1000.0 nM
[6] = molecular target: Muscarinic acetylcholine receptor M3 (Homo sapiens) (UniProt P20309); settings: Compound concentration 10.0 uM
[7] = molecular target: Mitogen-activated protein kinase 7 (Homo sapiens) (UniProt Q13164); settings: Compound concentration 1000.0 nM
[8] = molecular target: Cyclin-dependent kinase 18 (Homo sapiens) (UniProt Q07002); settings: Compound concentration 1000.0 nM
[9] = molecular target: Tyrosine-protein kinase Lck (Homo sapiens) (UniProt P06239); settings: Compound concentration 1000.0 nM
[10] = molecular target: T1, MAP kinase-activated protein kinase 5 (Homo sapiens) (UniProt Q8IW41); settings: Compound concentration 1000.0 nM
T1 sequence (whole entry): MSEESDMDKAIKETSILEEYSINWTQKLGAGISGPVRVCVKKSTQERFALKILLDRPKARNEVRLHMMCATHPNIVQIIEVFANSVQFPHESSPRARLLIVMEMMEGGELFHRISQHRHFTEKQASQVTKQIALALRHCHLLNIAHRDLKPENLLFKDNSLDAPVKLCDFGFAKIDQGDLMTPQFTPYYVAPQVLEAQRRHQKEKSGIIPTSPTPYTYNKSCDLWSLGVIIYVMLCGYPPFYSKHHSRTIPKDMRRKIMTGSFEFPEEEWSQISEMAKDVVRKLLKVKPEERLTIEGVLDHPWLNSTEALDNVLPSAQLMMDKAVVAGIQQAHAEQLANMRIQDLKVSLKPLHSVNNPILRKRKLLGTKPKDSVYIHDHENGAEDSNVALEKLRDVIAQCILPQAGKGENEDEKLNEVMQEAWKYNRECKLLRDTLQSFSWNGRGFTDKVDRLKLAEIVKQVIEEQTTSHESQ

[11] = molecular target: Cyclin-dependent kinase 4 (Homo sapiens) (UniProt P11802); settings: Compound concentration 1000.0 nM
[12] = molecular target: T2, Mitogen-activated protein kinase kinase kinase kinase 3 (Homo sapiens) (UniProt Q8IVH8); settings: Compound concentration 1000.0 nM
T2 sequence (whole entry): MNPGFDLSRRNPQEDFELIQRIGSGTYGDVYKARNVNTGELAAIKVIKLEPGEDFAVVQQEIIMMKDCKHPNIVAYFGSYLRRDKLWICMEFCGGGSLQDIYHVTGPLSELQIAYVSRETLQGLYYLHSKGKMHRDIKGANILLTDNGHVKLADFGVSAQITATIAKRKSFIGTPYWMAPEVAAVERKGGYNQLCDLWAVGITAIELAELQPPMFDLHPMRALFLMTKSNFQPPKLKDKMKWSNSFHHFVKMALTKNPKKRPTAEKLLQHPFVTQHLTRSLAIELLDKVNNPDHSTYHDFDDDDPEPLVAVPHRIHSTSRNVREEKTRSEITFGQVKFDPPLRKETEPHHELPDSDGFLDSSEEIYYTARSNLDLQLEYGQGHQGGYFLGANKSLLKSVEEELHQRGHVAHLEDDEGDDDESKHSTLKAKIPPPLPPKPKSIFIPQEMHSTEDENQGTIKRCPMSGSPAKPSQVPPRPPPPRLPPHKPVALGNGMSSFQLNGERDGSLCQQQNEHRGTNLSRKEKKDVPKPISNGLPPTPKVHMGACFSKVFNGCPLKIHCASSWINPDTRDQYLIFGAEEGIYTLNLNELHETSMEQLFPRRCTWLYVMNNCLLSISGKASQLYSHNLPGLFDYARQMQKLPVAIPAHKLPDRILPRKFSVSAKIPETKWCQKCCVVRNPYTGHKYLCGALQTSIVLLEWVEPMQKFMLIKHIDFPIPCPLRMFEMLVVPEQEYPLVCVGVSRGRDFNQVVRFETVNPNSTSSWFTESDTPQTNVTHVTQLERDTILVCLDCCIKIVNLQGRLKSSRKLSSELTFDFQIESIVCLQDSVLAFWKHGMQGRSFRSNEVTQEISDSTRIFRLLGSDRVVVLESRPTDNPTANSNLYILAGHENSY

[13] = molecular target: Tyrosine-protein kinase FRK (Homo sapiens) (UniProt P42685); settings: Compound concentration 1000.0 nM
[14] = molecular target: T3, Tyrosine-protein kinase TXK (Homo sapiens) (UniProt P42681); settings: Compound concentration 1000.0 nM
T3 sequence (whole entry): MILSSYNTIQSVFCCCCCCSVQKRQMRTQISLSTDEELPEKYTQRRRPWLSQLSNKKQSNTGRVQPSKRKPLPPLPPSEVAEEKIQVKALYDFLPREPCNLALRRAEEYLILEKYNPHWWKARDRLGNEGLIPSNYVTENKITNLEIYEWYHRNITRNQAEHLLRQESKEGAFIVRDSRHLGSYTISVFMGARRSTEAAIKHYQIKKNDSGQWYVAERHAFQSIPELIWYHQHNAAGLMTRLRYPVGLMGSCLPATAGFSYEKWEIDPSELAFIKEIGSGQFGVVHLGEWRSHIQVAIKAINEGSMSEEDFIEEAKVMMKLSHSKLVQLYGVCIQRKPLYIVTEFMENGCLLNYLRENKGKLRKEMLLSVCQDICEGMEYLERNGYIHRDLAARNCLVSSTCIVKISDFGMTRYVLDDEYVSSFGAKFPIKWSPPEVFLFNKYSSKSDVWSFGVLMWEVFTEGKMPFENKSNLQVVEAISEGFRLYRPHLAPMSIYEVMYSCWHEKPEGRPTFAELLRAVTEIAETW

[15] = molecular target: Peripheral plasma membrane protein CASK (Homo sapiens) (UniProt O14936); settings: Compound concentration 1000.0 nM
[16] = molecular target: Misshapen-like kinase 1 (Homo sapiens) (UniProt Q8N4C8); settings: Compound concentration 1000.0 nM
Chain of Misshapen-like kinase 1 (Homo sapiens) (Q8N4C8 whole entry, looked up): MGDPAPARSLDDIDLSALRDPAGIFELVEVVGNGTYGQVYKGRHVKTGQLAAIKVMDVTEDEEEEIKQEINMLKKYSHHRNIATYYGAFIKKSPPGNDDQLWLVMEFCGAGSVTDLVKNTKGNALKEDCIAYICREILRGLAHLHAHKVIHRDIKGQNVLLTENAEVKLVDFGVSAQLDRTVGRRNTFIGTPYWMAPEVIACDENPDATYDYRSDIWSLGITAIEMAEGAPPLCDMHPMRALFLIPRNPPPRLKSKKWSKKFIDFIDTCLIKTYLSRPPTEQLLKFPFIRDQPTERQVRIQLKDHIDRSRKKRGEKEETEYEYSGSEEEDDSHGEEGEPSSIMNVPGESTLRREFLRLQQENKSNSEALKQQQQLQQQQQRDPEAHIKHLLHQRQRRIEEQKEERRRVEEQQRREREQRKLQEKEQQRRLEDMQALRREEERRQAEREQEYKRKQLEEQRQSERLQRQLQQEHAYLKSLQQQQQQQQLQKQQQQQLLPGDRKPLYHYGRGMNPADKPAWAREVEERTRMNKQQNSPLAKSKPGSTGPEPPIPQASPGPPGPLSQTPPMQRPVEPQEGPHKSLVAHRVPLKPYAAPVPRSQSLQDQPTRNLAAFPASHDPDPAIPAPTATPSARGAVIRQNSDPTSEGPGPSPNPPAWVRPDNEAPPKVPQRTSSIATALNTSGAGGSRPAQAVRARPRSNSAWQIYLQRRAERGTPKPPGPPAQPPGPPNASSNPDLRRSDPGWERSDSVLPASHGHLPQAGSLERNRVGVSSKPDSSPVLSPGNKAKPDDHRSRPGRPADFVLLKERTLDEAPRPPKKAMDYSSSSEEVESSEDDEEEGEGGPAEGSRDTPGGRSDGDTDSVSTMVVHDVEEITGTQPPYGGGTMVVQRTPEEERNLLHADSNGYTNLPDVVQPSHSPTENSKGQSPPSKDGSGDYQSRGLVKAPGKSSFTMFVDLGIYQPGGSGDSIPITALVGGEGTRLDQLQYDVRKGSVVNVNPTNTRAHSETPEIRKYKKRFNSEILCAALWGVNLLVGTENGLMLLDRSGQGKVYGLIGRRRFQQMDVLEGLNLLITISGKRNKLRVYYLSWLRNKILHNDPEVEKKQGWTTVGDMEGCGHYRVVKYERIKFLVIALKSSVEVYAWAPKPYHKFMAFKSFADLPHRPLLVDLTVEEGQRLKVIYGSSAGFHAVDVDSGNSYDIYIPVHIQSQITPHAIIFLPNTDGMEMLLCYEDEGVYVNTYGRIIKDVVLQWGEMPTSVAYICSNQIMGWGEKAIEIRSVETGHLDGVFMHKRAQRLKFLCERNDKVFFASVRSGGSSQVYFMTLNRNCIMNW

Chain of Cyclin-dependent kinase 4 (Homo sapiens) (P11802 whole entry): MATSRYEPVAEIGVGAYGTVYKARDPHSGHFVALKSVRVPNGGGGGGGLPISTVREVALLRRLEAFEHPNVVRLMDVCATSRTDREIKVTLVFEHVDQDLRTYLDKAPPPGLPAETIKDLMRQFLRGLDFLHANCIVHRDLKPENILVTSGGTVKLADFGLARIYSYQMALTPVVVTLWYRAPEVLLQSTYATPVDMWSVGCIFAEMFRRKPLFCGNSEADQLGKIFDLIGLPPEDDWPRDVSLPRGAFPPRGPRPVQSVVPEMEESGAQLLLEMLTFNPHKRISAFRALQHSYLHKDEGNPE
Chain of Muscarinic acetylcholine receptor M3 (Homo sapiens) (P20309 whole entry, looked up): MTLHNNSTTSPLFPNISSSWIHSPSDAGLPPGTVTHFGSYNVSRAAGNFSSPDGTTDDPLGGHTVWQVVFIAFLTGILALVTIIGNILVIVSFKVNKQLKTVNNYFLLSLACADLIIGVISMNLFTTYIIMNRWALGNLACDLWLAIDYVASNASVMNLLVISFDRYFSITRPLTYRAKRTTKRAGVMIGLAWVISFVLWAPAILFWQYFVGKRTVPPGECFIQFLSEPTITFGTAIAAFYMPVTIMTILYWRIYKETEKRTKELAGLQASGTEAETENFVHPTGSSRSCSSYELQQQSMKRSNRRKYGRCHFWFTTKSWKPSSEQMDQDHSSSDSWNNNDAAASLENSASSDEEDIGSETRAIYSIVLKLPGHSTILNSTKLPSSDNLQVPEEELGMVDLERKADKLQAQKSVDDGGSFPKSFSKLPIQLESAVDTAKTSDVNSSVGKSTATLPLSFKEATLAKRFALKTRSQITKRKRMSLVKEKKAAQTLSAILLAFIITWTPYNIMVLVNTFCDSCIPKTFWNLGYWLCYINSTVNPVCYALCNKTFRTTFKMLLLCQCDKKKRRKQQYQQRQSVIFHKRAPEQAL
Chain of Tyrosine-protein kinase JAK1 (Homo sapiens) (P23458 whole entry, canonical isoform): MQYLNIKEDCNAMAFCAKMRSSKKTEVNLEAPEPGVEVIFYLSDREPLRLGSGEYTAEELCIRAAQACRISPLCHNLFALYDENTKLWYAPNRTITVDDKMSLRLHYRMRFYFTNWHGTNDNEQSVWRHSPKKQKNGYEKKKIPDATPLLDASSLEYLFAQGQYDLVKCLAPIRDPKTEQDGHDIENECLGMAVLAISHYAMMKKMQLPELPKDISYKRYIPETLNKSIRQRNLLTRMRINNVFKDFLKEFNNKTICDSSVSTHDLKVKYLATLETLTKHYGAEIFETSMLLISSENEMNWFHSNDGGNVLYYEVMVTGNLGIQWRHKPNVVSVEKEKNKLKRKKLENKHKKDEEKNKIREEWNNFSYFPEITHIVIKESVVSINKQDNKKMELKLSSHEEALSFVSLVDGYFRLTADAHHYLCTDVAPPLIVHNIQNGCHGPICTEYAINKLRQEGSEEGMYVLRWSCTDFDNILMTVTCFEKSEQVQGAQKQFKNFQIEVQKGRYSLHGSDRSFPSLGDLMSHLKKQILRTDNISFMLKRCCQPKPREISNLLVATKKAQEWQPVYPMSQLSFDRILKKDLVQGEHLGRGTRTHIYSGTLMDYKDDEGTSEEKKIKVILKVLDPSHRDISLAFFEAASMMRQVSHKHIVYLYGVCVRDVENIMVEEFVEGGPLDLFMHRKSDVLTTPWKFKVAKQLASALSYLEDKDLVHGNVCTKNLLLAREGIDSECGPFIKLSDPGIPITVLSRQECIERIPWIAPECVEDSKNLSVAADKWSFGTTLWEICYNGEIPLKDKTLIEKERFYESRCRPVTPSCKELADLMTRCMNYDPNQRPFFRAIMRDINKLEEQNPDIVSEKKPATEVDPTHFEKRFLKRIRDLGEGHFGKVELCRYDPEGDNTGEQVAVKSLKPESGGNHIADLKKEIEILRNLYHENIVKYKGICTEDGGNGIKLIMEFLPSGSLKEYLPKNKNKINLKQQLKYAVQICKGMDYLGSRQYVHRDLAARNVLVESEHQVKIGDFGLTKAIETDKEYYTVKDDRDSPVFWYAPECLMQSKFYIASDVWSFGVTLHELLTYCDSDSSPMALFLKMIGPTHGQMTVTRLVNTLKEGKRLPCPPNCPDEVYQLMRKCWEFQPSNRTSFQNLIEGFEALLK
Chain of Phosphatidylinositol 4,5-bisphosphate 3-kinase catalytic subunit alpha isoform (Homo sapiens), P42336 [E542K] (P42336 whole entry E542K, canonical isoform): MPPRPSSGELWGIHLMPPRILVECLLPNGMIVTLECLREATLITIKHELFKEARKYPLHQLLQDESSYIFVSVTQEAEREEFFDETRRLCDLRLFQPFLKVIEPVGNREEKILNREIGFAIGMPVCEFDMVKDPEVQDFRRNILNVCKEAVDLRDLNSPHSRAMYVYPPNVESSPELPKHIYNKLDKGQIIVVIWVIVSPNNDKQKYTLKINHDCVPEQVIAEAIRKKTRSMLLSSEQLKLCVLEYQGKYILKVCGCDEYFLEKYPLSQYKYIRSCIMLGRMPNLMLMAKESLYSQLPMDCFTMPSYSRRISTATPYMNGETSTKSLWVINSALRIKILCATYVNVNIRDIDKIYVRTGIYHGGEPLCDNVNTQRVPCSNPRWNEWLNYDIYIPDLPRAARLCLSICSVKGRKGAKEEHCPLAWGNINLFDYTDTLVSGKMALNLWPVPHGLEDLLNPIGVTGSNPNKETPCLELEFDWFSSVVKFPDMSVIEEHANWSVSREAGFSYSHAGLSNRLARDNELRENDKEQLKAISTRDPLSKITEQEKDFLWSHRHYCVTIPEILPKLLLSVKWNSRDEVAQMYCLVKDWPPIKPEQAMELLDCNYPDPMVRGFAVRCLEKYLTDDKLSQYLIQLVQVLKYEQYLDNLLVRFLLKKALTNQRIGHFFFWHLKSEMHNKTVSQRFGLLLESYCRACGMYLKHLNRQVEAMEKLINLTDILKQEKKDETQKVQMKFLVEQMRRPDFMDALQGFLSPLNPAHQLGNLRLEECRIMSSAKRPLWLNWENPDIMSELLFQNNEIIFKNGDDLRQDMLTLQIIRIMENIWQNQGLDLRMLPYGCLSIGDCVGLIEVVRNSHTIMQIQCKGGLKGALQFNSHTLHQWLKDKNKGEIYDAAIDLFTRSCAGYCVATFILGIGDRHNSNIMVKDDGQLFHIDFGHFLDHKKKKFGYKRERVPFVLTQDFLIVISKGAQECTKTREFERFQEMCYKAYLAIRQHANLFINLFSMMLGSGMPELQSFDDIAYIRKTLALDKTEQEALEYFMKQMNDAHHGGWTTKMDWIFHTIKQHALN
Chain of Eukaryotic translation initiation factor 2-alpha kinase 1 (Homo sapiens) (Q9BQI3 whole entry): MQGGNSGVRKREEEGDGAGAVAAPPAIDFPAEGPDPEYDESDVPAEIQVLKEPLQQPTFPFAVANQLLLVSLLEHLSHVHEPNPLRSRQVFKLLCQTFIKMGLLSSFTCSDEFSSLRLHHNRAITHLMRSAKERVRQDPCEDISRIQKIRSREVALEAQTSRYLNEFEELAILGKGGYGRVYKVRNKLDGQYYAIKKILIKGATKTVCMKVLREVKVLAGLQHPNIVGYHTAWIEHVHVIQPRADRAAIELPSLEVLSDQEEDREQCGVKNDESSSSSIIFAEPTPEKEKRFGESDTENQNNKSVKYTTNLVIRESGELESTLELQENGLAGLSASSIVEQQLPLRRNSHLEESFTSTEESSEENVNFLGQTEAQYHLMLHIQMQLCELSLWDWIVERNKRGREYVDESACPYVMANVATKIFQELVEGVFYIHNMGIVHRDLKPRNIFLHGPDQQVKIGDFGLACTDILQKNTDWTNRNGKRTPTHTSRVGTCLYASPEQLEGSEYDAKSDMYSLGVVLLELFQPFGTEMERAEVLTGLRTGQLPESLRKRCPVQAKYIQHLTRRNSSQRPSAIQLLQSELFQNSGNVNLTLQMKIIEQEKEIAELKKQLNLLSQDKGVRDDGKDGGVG

CCc1ccccc1C(=O)Nc1n[nH]c2c(C)c(F)c(C3C(C#N)=C(C)N(C)C(C)=C3C#N)cc12 [BAY-3827]
inactive: residual activity [1] 91% | residual activity [2] 54% | residual activity [3] 100% | residual activity [4] 97% | residual activity [5] 88% | inhibition [6] 22.5% | residual activity [7] 86% | residual activity [8] 75% | residual activity [9] 100% | residual activity [10] 100% | residual activity [11] 100% | residual activity [12] 100% | residual activity [13] 100% | residual activity [14] 84% | residual activity [15] 81% | residual activity [16] 99%

CC1=C(C#N)C(c2ccc3c(c2)c(NC(=O)c2ccccc2C)nn3C)C(C#N)=C(C)N1 [BAY-974]
inactive: residual activity [1] 90% | residual activity [2] 91% | residual activity [3] 100% | residual activity [4] 97% | residual activity [5] 63% | inhibition [6] 9.49% | residual activity [7] 100% | residual activity [8] 100% | residual activity [9] 81% | residual activity [10] 100% | residual activity [11] 100% | residual activity [12] 80% | residual activity [13] 100% | residual activity [14] 100% | residual activity [15] 67% | residual activity [16] 96%

Reference: ChEMBL document CHEMBL4507319 (2021)
